Laboratory results: patent US9861604B2, “Coriolus versicolor extracts, methods of isolating biologically-active compounds, and uses thereof” (priority 2012, dated 2018)

What was measured:
Format in all cases: cell-based, human
[1] = test system: MMP-3; assay: TNF-α induced MMP-3 mRNA level in T98G cells (TaqMan); conditions: 10, 25 and 50 μg/ml 18 hr, then TNF-α 10 ng/ml 3 hr, FIG. 16
Description: Glioblastoma (T98G, brain cells) cells were pretreated with different batches of ethanol extract or purified compounds of C. versicolor for 18 hr, and then treated with recombinant human TNF-α (10 ng/ml) for another 3 hr. Total RNA extraction was performed by TRIzol reagent (Invitrogen) according to the manufacturer's instructions. Total RNA was reverse transcribed by Superscript II reverse transcriptase (Invitrogen) with oligo (dT) primers. MMP-3 mRNA levels were analyzed by TaqMan Gene Expression Assays (Applied Biosystems).
Briefly, glioblastoma (T98G; brain cells) cells were pretreated with MPUB-EtOH at different concentrations (1, 10 and 50 ug/ml) for 18 hrs, and then treated with recombinant human TNFα (10 ng/ml) for 3 hrs. MMP-3 mRNA levels were analyzed by TaqMan Gene Expression Assays. […] A p value of <0.05 (*) was considered statistically significant.

[2] = test system: MMP-3; assay: TNF-α induced MMP-3 protein expression in T98G cells (ELISA); conditions: 10, 25 and 50 μg/ml 18 hr, then TNF-α 10 ng/ml 24 hr, FIG. 17
Description: T98G cells were pretreated with different batches of ethanol extract of C. versicolor for 18 hr, and then treated with recombinant human TNF-α (10 ng/ml) for another 24 hr. Protein levels of MMP-3 in the cell culture supernatants were analyzed by enzyme-linked immunosorbent assays (ELISA) using commercially available assay kits (R&D Systems).

[3] = test system: T98G cells; assay: MTT assay on T98G cells; conditions: 10, 25 and 50 μg/ml, time course of 48 hr, FIG. 19
Description: T98G cells were incubated with different batches of ethanol extract or purified compounds of C. versicolor for 48 hr. After treatment, MTT (3-[4,5-dimethylthiazol-2-yl]-2,5-di-phenyltetrazolim bromide) (Sigma) was added to the medium at a final concentration of 1 mg/ml and followed by 2 hr incubation at 37° C. MTT formazan formed was then dissolved in 200 μl of isopropanol and the absorbance of the supernatant was measured at 570 nm using a 96-well microplate reader.

[4] = test system: Glioblastoma (T98G) cells; assay: Matrigel Invasion Chamber tumor cell invasion assay, T98G; conditions: 25 μg/ml 18 hr, invasion 24 hr; FIG. 22
Description: Cell invasiveness was studied using BD BioCoat™ Matrigel™ Invasion Chamber (BD Biosciences). T98G cells suspended in MEM containing 1% FBS, 1% penicillin-streptomycin and 1% sodium pyruvate were seeded overnight on top of gel in each chamber. Bicarbonate based culture medium was added into the bottom wells of the plate. After incubation, the cells were treated with ethanol extract of C. versicolor/Cove-1 for 18 hr. The chambers were then transferred to a new plate with each well containing MEM supplemented with 10% FBS. Cells were allowed to invade through the matrices at 37° C. for another 24 hr. After the invasion assay, invaded cells on the lower surface of the chamber were fixed with 100% methanol for 2 min, and stained with Crystal Violet. The number of invading cells was quantified by counting under a light microscope.
Specifically, the effect of C. versicolor on cancer cell invasiveness was studied using a Matrigel Invasion Chamber. […] The number of invading cells was quantified by counting under a light microscope.
Specifically, the effect of 9-KODE methyl ester on cell invasiveness was studied using Matrigel Invasion Chamber. Glioblastoma (T98G) cells were treated with 9-KODE methyl ester for 18 hr, and then the cells were allowed to invade through the matrices for another 24 hr. The number of invading cells was quantified by counting under a light microscope.

SMILES: CCCCC/C=C/C=C/C(=O)CCCCCCCC(=O)OC [Cove-1, 9-oxo-10E,12E-octadecadienoic acid methyl ester]
- TNF-α induced MMP-3 mRNA level [1]: suppressed TNF-α induced MMP-3 mRNA level
- TNF-α induced MMP-3 protein expression [2]: inhibited TNF-α induced MMP-3 protein expression
- metabolic activities of the cells (MTT) [3]: no significant differences in the metabolic activities
- T98G cell invasiveness (number of invading cells) [4]: reduced the invasiveness of T98G significantly
